The results in this text go back to ChEMBL document CHEMBL1944594, “Synthesis, biological evaluation, and docking studies of tetrahydrofuran- cyclopentanone- and cyclopentanol-based ligands acting at adrenergic α₁- and serotonine 5-HT1A receptors” (J Med Chem, 2012).

Test [1] deals with T1, Alpha-1D adrenergic receptor (Rattus norvegicus) (UniProt P23944).
T1 sequence (whole entry): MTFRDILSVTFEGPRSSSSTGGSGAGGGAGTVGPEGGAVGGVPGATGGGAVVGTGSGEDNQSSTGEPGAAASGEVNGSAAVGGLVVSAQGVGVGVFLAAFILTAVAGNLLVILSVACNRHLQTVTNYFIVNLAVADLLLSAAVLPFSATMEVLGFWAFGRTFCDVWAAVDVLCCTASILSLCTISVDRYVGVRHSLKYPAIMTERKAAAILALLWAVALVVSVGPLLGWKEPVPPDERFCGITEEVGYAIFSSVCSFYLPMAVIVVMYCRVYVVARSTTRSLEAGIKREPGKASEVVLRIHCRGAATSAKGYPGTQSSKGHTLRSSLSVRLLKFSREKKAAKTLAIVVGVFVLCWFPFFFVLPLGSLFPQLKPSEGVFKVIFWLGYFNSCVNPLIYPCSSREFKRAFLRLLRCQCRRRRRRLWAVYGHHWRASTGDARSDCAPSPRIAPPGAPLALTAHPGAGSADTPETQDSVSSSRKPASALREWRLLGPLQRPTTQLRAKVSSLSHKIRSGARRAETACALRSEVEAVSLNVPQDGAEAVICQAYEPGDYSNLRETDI
The experiment in a line: Antagonist activity at Alpha-1D adrenoceptor in Wistar rat endothelium denuded thoracic aorta assessed as inhibition of (-)-noradrenalilne-induced contraction after 30 mins. In kind it is functional, tissue-based.

Test [2] deals with T2, 5-hydroxytryptamine receptor 1A (Homo sapiens) (UniProt P08908).
T2 sequence (whole entry): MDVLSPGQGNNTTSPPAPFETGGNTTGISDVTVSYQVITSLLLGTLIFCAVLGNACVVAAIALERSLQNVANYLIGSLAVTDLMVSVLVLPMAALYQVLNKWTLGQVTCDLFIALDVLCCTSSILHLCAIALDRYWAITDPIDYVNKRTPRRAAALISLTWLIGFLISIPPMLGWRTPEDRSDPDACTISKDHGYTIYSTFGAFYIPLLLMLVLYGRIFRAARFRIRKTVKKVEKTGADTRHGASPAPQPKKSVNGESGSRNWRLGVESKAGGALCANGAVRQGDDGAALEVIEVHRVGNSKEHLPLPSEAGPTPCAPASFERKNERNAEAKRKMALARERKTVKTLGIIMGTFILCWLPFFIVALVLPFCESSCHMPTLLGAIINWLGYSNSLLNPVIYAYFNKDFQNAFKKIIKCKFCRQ
Briefly: Agonist activity at human recombinant 5HT1A receptor expressed in HeLa cells preincubated for 20 mins by [35S]GTPgammaS binding assay relative to 8-OH-DPAT. In kind it is functional, cell-based. A general note: Binding of GTPγS marks nucleotide exchange on a G protein.

Test [3] addresses T2, 5-hydroxytryptamine receptor 1A (Homo sapiens). The settings on record: HeLa.
Test [4] concerns the target T3, Alpha-1A adrenergic receptor (Homo sapiens, UniProt P35348).
T3 sequence (P35348 whole entry): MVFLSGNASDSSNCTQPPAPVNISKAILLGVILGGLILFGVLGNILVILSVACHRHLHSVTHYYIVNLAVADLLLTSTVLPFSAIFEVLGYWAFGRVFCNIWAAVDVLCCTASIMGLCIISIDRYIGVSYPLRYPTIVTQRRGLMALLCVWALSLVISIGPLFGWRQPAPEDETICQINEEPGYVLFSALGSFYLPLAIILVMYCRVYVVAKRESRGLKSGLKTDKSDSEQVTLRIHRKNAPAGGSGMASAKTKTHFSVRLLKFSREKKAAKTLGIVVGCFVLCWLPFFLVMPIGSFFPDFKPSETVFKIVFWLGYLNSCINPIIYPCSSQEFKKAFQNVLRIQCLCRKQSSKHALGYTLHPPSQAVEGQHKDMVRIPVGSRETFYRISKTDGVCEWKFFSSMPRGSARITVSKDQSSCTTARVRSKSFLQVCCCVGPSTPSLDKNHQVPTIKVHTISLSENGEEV
Briefly: biochemical.
Description: Displacement of [3H]prazosin from human recombinant alpha1A adrenoceptor expressed in CHO cells after 30 mins by liquid scintillation counting

In test [5] the target is T4, Alpha-1B adrenergic receptor (Homo sapiens, UniProt P35368).
T4 sequence (P35368 whole entry): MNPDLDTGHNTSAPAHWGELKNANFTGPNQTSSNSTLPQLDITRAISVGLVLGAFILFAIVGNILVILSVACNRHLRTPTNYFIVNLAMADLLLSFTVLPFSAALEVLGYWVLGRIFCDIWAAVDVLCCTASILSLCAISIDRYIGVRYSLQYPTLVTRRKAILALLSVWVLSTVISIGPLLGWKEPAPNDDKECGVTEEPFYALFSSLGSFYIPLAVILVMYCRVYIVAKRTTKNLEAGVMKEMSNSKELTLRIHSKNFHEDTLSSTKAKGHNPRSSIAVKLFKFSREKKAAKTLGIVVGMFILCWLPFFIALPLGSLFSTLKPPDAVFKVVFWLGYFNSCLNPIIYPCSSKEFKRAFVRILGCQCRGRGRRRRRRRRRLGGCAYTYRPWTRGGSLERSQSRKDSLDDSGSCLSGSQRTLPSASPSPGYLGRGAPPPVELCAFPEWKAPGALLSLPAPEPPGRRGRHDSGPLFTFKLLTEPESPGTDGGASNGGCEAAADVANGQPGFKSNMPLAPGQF
The experiment in a line: biochemical.
Description: Displacement of [3H]prazosin from human recombinant alpha1B adrenoceptor expressed in CHO cells after 30 mins by liquid scintillation counting

For test [6], the target named is T5, Alpha-1D adrenergic receptor (Homo sapiens, UniProt P25100).
T5 sequence (P25100 whole entry): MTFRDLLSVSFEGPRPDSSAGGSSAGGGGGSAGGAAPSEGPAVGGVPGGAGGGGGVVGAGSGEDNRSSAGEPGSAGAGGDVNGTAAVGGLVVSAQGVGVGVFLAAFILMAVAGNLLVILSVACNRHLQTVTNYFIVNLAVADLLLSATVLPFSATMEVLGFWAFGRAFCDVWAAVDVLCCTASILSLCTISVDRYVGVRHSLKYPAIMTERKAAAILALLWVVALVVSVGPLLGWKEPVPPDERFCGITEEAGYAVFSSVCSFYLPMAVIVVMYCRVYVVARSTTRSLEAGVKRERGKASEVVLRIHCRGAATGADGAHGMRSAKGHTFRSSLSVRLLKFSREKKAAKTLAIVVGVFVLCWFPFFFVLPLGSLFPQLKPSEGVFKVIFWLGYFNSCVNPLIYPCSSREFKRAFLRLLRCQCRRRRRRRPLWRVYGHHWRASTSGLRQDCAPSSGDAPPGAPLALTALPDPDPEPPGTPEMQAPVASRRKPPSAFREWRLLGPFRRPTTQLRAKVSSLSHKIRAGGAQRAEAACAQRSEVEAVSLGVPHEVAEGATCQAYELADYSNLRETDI
Briefly: biochemical.
Description: Displacement of [3H]prazosin from human recombinant Alpha-1D adrenoceptor expressed in CHO cells after 30 mins by liquid scintillation counting

The target in test [7] is T6, 5-hydroxytryptamine receptor 1A (Homo sapiens, UniProt P08908).
T6 sequence (P08908 whole entry): T2 sequence (whole entry)
Briefly: biochemical.

On to `COc1ccccc1OCCNCC1CCC(c2ccccc2)(c2ccccc2)O1` (stereo not drawn), for which the pKb (in general, −log10 of the Kb, conventionally taken in molar units) in test [1] came to 8.09. The Emax (in general, the greatest response seen or fitted, relative to the assay's reference) in test [2] turned out to be 53.4%. The pD2 in test [3] came out at 9.04. The Ki (as a rule, a measure of affinity in units of concentration, obtained from inhibition or displacement) is 26.9 nM in test [4], 39.8 nM in test [5], 6.31 nM in test [6] and 0.832 nM in test [7].
Turning to `COc1ccccc1OCCNCC1CCC(c2ccccc2)(c2ccccc2)C1=O` (stereo not drawn), the pKb in test [1] is 6.54. Moreover, the maximum response (Emax) in test [2] worked out at 39.4%. The same compound yielded a pD2 in test [3] of 8.37. Further, the Ki was above 1000 nM in test [4], above 1000 nM in test [5], 141 nM in test [6] and 3.47 nM in test [7].
Regarding `COc1ccccc1OCCNC[C@H]1CCC(c2ccccc2)(c2ccccc2)[C@@H]1O` (relative stereo), the pKb in test [1] stood at 8.42. Further, the maximal effect (Emax) in test [2] was 64.1%. In test [3], this compound gave a pD2 of 8.96. For the same compound, the inhibition constant Ki is 110 nM in test [4], 74.1 nM in test [5], 5.75 nM in test [6] and 0.324 nM in test [7].
On to `O[C@@H]1[C@@H](CNCCOc2ccccc2)CCC1(c1ccccc1)c1ccccc1` (relative stereo), for which the pKb in test [1] was found to be 6.86. Further, the Emax in test [2] was 64.9%. In test [3], this compound gave a pD2 of 7.94. For the same compound, the Ki in test [4] was above 1000 nM; in test [5], 288 nM; in test [6], 93.3 nM; in test [7] it was 9.55 nM.
As to `COc1ccccc1N1CCN(C[C@H]2CCC(c3ccccc3)(c3ccccc3)[C@H]2O)CC1` (relative stereo), the negative logarithm of the Kb (pKb) in test [1] stood at 7.21. For the same compound, in test [2], the Emax came to 47.1%. In test [3], this compound had a pD2 of 9.03. The inhibition constant Ki in test [4] was 38.9 nM; in test [5], 166 nM; in test [6], 67.6 nM; in test [7] it was 0.562 nM.
Consider `COc1ccccc1N1CCN(C[C@H]2CCC(c3ccccc3)(c3ccccc3)[C@@H]2O)CC1`, for which the pKb in test [1] is 6.82. Further, the Emax in test [2] turned out to be 37.3%. The same compound showed a pD2 in test [3] of 8.74. For the same compound, the inhibition constant (Ki) in test [4] is 44.7 nM; in test [5], 245 nM; in test [6] it was 67.6 nM; in test [7], 0.794 nM.
On to `O=C1C(CNCCOc2ccccc2)CCC1(c1ccccc1)c1ccccc1` (stereo not drawn), for which, in test [1], the negative logarithm of the Kb (pKb) came out at 6.3. Besides, the Emax in test [2] stood at 25.5%. The pD2 in test [3] was determined as 7.44. The Ki is above 1000 nM in test [4], above 1000 nM in test [5], 389 nM in test [6] and 10.5 nM in test [7].
For `COc1ccccc1N1CCN(CC2COC(c3ccccc3)(c3ccccc3)O2)CC1` (stereo not drawn), in test [1], the pKb is 8.14. In test [2], the Emax came out at 16.2%. Besides, in test [3], the pD2 is 8.3. Besides, the Ki was 0.263 nM in test [4], 6.76 nM in test [5], 0.813 nM in test [6] and 22.9 nM in test [7].
Consider `O[C@@H]1[C@H](CNCCOc2ccccc2)CCC1(c1ccccc1)c1ccccc1` (relative stereo), for which, in test [1], the pKb amounted to 6.88. Besides, the maximum response (Emax) in test [2] came out at 46.5%. Moreover, the pD2 in test [3] was 7.81. In addition, the Ki in test [4] was above 1000 nM; in test [5], above 1000 nM; in test [6], above 1000 nM; in test [7], 9.33 nM.
